Laboratory results reported in PubChem BioAssay (NCI).
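Protocol summary: plate cells (96-well), add compound at 5 concentrations, incubate 48 h, interpolate endpoints linearly. Definition used: TGI = concentration required for complete inhibition of growth.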

Key:
Test in all cases: NCI anticancer screen, dose series, 48 h
NCI-H23 lung = tested on: NCI-H23 lung
SK-MEL-2 melanoma = tested on: SK-MEL-2 melanoma
SW-620 colon = tested on: SW-620 colon
K-562 leukemia = tested on: K-562 leukemia
HOP-62 NSCLC = tested on: HOP-62 NSCLC
HT29 colon = tested on: HT29 colon
SNB-19 CNS = tested on: SNB-19 CNS
A498 renal = tested on: A498 renal
MDA-MB-231 breast = tested on: MDA-MB-231 breast
786-0 renal = tested on: 786-0 renal
MOLT-4 leukemia = tested on: MOLT-4 leukemia
UO-31 renal = tested on: UO-31 renal
UACC-257 melanoma = tested on: UACC-257 melanoma
MCF7 breast = tested on: MCF7 breast
OVCAR-3 ovarian = tested on: OVCAR-3 ovarian
SR leukemia = tested on: SR leukemia
SF-539 CNS = tested on: SF-539 CNS
SF-295 CNS = tested on: SF-295 CNS
SK-MEL-5 melanoma = tested on: SK-MEL-5 melanoma
OVCAR-8 ovarian = tested on: OVCAR-8 ovarian
MDA-MB-435 = tested on: MDA-MB-435
SN12C renal = tested on: SN12C renal
HCT-15 colon = tested on: HCT-15 colon
COLO 205 colon = tested on: COLO 205 colon
SK-OV-3 ovarian = tested on: SK-OV-3 ovarian
U251 CNS = tested on: U251 CNS
RXF 393 renal = tested on: RXF 393 renal
EKVX NSCLC = tested on: EKVX NSCLC
MDA-N = tested on: MDA-N
OVCAR-4 ovarian = tested on: OVCAR-4 ovarian
NCI-H522 lung = tested on: NCI-H522 lung
SK-MEL-28 melanoma = tested on: SK-MEL-28 melanoma
BT-549 breast = tested on: BT-549 breast
IGROV1 ovarian = tested on: IGROV1 ovarian
KM12 colon = tested on: KM12 colon
HCT-116 colon = tested on: HCT-116 colon
OVCAR-5 ovarian = tested on: OVCAR-5 ovarian
T-47D breast = tested on: T-47D breast
HS 578T breast = tested on: HS 578T breast
SF-268 CNS = tested on: SF-268 CNS
MALME-3M melanoma = tested on: MALME-3M melanoma
M14 melanoma = tested on: M14 melanoma
TK-10 renal = tested on: TK-10 renal
LOX IMVI melanoma = tested on: LOX IMVI melanoma
NCI-H460 lung = tested on: NCI-H460 lung
HOP-92 NSCLC = tested on: HOP-92 NSCLC
NCI/ADR-RES ovarian = tested on: NCI/ADR-RES ovarian
ACHN renal = tested on: ACHN renal
HL-60(TB) leukemia = tested on: HL-60(TB) leukemia
A549 NSCLC = tested on: A549 NSCLC
CAKI-1 renal = tested on: CAKI-1 renal
RPMI-8226 leukemia = tested on: RPMI-8226 leukemia
DU-145 prostate = tested on: DU-145 prostate
PC-3 prostate = tested on: PC-3 prostate
UACC-62 melanoma = tested on: UACC-62 melanoma
HCC-2998 colon = tested on: HCC-2998 colon
CCRF-CEM leukemia = tested on: CCRF-CEM leukemia

## CC[C@H](C)C1=C(OC(C)=O)[N@+]2([O-])Oc3ccc(-c4c(O)c(O)c(-c5ccc(OC(C)=O)cc5)c(OC(C)=O)c4OC(C)=O)cc3O[C@]2([C@@H](C)CC)C(=O)N1O
NCI-H23 lung
  TGI: > 50 µM
SK-MEL-2 melanoma
  TGI: > 50 µM
SW-620 colon
  TGI: 34.5 µM
K-562 leukemia
  TGI: 29.2 µM
HOP-62 NSCLC
  TGI: > 50 µM
HT29 colon
  TGI: > 50 µM
SNB-19 CNS
  TGI: > 50 µM
A498 renal
  TGI: > 50 µM
MDA-MB-231 breast
  TGI: > 50 µM
786-0 renal
  TGI: 43.2 µM
MOLT-4 leukemia
  TGI: > 50 µM
UO-31 renal
  TGI: > 50 µM
UACC-257 melanoma
  TGI: > 50 µM
MCF7 breast
  TGI: > 50 µM
OVCAR-3 ovarian
  TGI: 37.5 µM
SR leukemia
  TGI: 39.7 µM
SF-539 CNS
  TGI: > 50 µM
SF-295 CNS
  TGI: > 50 µM
SK-MEL-5 melanoma
  TGI: > 50 µM
OVCAR-8 ovarian
  TGI: > 50 µM
MDA-MB-435
  TGI: > 50 µM
SN12C renal
  TGI: > 50 µM
HCT-15 colon
  TGI: > 50 µM
COLO 205 colon
  TGI: > 50 µM
SK-OV-3 ovarian
  TGI: > 50 µM
U251 CNS
  TGI: > 50 µM
RXF 393 renal
  TGI: > 50 µM
EKVX NSCLC
  TGI: > 50 µM
MDA-N
  TGI: > 50 µM
OVCAR-4 ovarian
  TGI: 26.9 µM
NCI-H522 lung
  TGI: 22.2 µM
SK-MEL-28 melanoma
  TGI: > 50 µM
BT-549 breast
  TGI: > 50 µM
IGROV1 ovarian
  TGI: 44.7 µM
KM12 colon
  TGI: > 50 µM
HCT-116 colon
  TGI: 19.5 µM
OVCAR-5 ovarian
  TGI: > 50 µM
T-47D breast
  TGI: 37.7 µM
HS 578T breast
  TGI: > 50 µM
SF-268 CNS
  TGI: > 50 µM
MALME-3M melanoma
  TGI: 46.6 µM
M14 melanoma
  TGI: > 50 µM
TK-10 renal
  TGI: > 50 µM
LOX IMVI melanoma
  TGI: > 50 µM
NCI-H460 lung
  TGI: > 50 µM
HOP-92 NSCLC
  TGI: 23 µM
NCI/ADR-RES ovarian
  TGI: > 50 µM
ACHN renal
  TGI: > 50 µM
HL-60(TB) leukemia
  TGI: > 50 µM
A549 NSCLC
  TGI: > 50 µM
CAKI-1 renal
  TGI: > 50 µM
RPMI-8226 leukemia
  TGI: 25.5 µM
DU-145 prostate
  TGI: > 50 µM
PC-3 prostate
  TGI: > 50 µM
UACC-62 melanoma
  TGI: 46.9 µM

## CN(C)CCCNc1ccc2nnn3c4ccc(OC(=O)c5ccccc5)cc4c(=O)c1c23
NCI-H23 lung
  TGI: 32.2 µM
SK-MEL-2 melanoma
  TGI: 32.9 µM
SW-620 colon
  TGI: 21.2 µM
K-562 leukemia
  TGI: 4.49 µM
HOP-62 NSCLC
  TGI: 20.9 µM
HT29 colon
  TGI: 22.2 µM
SNB-19 CNS
  TGI: 25.4 µM
A498 renal
  TGI: 25.4 µM
MDA-MB-231 breast
  TGI: 27.3 µM
786-0 renal
  TGI: 17.5 µM
HCC-2998 colon
  TGI: 26.1 µM
MOLT-4 leukemia
  TGI: 9.41 µM
UO-31 renal
  TGI: 20.8 µM
UACC-257 melanoma
  TGI: 34.3 µM
CCRF-CEM leukemia
  TGI: 7.98 µM
MCF7 breast
  TGI: 30 µM
OVCAR-3 ovarian
  TGI: 24.9 µM
SR leukemia
  TGI: 2.61 µM
SF-539 CNS
  TGI: 22.7 µM
SF-295 CNS
  TGI: 24.3 µM
OVCAR-8 ovarian
  TGI: 39.8 µM
MDA-MB-435
  TGI: 19.1 µM
SN12C renal
  TGI: 25.4 µM
HCT-15 colon
  TGI: 33.7 µM
COLO 205 colon
  TGI: 28.9 µM
SK-OV-3 ovarian
  TGI: 42.9 µM
U251 CNS
  TGI: 29 µM
RXF 393 renal
  TGI: 12.8 µM
EKVX NSCLC
  TGI: 20.2 µM
MDA-N
  TGI: 30.1 µM
OVCAR-4 ovarian
  TGI: 11.7 µM
NCI-H522 lung
  TGI: 10.5 µM
SK-MEL-28 melanoma
  TGI: 30.2 µM
BT-549 breast
  TGI: 32.7 µM
IGROV1 ovarian
  TGI: 36.3 µM
KM12 colon
  TGI: 23.3 µM
HCT-116 colon
  TGI: 24.7 µM
OVCAR-5 ovarian
  TGI: 30.4 µM
T-47D breast
  TGI: 37.5 µM
HS 578T breast
  TGI: 36.6 µM
SF-268 CNS
  TGI: 25.6 µM
MALME-3M melanoma
  TGI: 29.2 µM
M14 melanoma
  TGI: 28.3 µM
TK-10 renal
  TGI: 24.3 µM
LOX IMVI melanoma
  TGI: 15.2 µM
NCI-H460 lung
  TGI: 25.2 µM
HOP-92 NSCLC
  TGI: 39.2 µM
NCI/ADR-RES ovarian
  TGI: 37.9 µM
ACHN renal
  TGI: 16.5 µM
A549 NSCLC
  TGI: 23.7 µM
CAKI-1 renal
  TGI: 10.7 µM
RPMI-8226 leukemia
  TGI: 25.5 µM
DU-145 prostate
  TGI: 22.9 µM
PC-3 prostate
  TGI: 23.8 µM
UACC-62 melanoma
  TGI: 29.6 µM
